Entries after “also recorded” stand apart in the source; their conditions may differ.
Columns and labels:
[1] = GLP 28-day oral toxicity and toxicokinetics study; format: in vivo, Sprague Dawley rats; conditions: for AUC0-24 / AUC(0-t) / Cmax / Tmax / half-life: po; for half-life: t1/2
Protocol: One-hundred and sixty (80 per sex) Sprague Dawley rats were randomly assigned to groups and dosed once daily via oral gavage for 28 consecutive days.
Nominal dose values and sampling times were used for calculations. Any concentration reported as BLQ (LLOQ<1.0 ng/ml) was set equal to zero. Toxicokinetic analyses included Cmax, Tmax, AUC0-24, t1/2, RA Cmax, and RA AUC0-24.
Based on the absence of toxicity, the 28-day maximum tolerated dose (MTD) (also the no observed adverse effect level [NOAEL]) was 1000 mg/kg/day, the highest dose level tested. […] Respiratory function was also not affected by Compound I at any dose level.

[2] = test system: BT474 human breast carcinoma cells; test: Crystal violet colony assay; format: cell-based
Protocol: The T47D human breast carcinoma cell line was grown in RPMI-1640/1× Glutamax/1× Insulin/10% fetal bovine serum and was plated at 10,000 cells/well in Corning 6 well tissue culture treated plates. The BT474 human breast carcinoma cell line was grown in DMEM/1× Glutamax/1× Insulin/10% fetal bovine serum and was plated at 25,000 cells/well in Corning 6 well tissue culture treated plates. Cells were incubated at 37° C. for 24 hours prior to addition of treatment. […] Plates were collected at week 2 and 3, at week 3, 2 plates with only CDK4/6i were switched to combination treatment. The remaining plates were collected at weeks 5 and 8. Collection was performed by washing wells with PBS before incubating 5 minutes with 0.1% crystal violet/20% methanol. Dye was removed and wells washed 4 times with PBS before being scanned at 1200 dpi. Image J was used to count the % area and colony size for each well. Graph pad was used for analysis.

H526 cells = test: CellTiter Glo cell proliferation assay (single agent and chemotherapy combination); format: cell-based, human
Protocol: Plates returned to incubator for six additional days. On day six post dosing, plates were removed and treated with CellTiter Glo reagent following manufacturer's specifications. Plates incubated 45 minutes at room temperature and run on a Biotek luminometer with 1 sec/well detection. Results were converted to Microsoft Excel and transferred to GraphPad Prism for analysis.
Cells were plated at 250 cells per well in white wall/clear bottom plates and incubated overnight. […] Plates returned to the incubator for six additional days. On day six post dosing, plates were removed and treated with CellTiter Glo reagent following manufacturer's specifications. Plates incubated 45 minutes at room temperature and run on a Biotek luminometer with 1 sec/well detection. Results were converted to Microsoft Excel and transferred to GraphPad Prism for analysis.
Dose curves ranged from 300 pM to 10 μM in triplicate and treatments lasted for 6 days. Plates were removed from incubator at each specified timepoint and treated with CellTiter-Glo (Promega, Inc) following manufacturer specifications. Plates were then read on CLARIOstar luminometer with 1 sec/well integration.
Dose curves ranged from 300 pM to 10 μM in triplicate and treatments lasted for 6 days. Plates were removed from incubator at each specified timepoint and treated with CellTiter-Glo (Promega, Inc) following manufacturer specifications. Plates were then read on CLARIOstar luminometer with 1 sec/well integration. Results were converted to Microsoft Excel and transferred to GraphPad Prism for Analysis.

Kuramochi cells = test: CellTiter Glo cell proliferation assay; format: cell-based, human; conditions: CCNE1 gained, six days
Protocol: Plates were returned to the incubator for six additional days. On day six post dosing, plates were removed and treated with CellTiter Glo reagent following manufacturer's specifications. Plates were incubated 45 minutes at room temperature and run on Biotek luminometer with 1 sec/well detection. Results were converted to Microsoft Excel and transferred to Graphpad Prism for analysis. […] These cell types are distinguished by either gained of cyclin E1 expression or activation (Kuramochi) or intrinsic amplification of cyclin E1 (OVCAR-3, COV318).
The Kuramochi human ovarian carcinoma cell line was grown in RPMI-1640/1× Glutamax/10% fetal bovine serum and the FUOV-1 human ovarian carcinoma cell line was grown in DMEM/F12/1× Glutamax/10% fetal bovine serum and both were plated at 1,000 cells/well in Corning 96 well white wall/clear bottom tissue culture treated plates. […] Plates were removed from incubator at each specified timepoint and treated with CellTiter-Glo (Promega, Inc) following manufacturer specifications. Plates were then read on CLARIOstar luminometer with 1 sec/well integration. Results were converted to Microsoft Excel and transferred to GraphPad Prism for Analysis (FIG. 16A-B).

[3] = test system: Palbo-S MCF7 parental cells; test: Cell cycle by EdU flow cytometry; format: cell-based, human; conditions: 10 nM to 10 μM, 24 hours
Protocol: (§1) The Palbo-sensitive (Palbo-S) MCF7 parental and Palbo-R daughter cells (MCF7 PDRC15-1) human […] carcinoma cell line was grown in MEM/1× Glutamax/1× Insulin/10% fetal bovine serum with the PDR cells grown in the presence of 1 μM palbociclib. Cells were plated at 100,000 cells/well in Corning 6 cm tissue culture treated plates. […] Cells were treated for 24 hours and 10 μM EdU was added 1 hour prior to collection. Cells were collected and fixed in 1% paraformaldehyde. Cells were incubated with Alexa488 azide dye as described by Thermo Scientific. Cells were then incubated with FarRed dye and RNase. Cells were analyzed on a BD Celesta and data compiled using FloJo and GraphPad. […] The resistant Palbo-R MCF7 cells have a much lower percent of cells in S phase in general.

[4] = test system: Palbo-R MCF7 PDRC15-1 cells; test: Cell cycle by EdU flow cytometry; format: cell-based, human; conditions: with 1 μM palbociclib, 24 hours
Protocol: as §1

[5] = female, Sprague Dawley, rat, in vivo, 100 mg/kg/day
[6] = female, Sprague Dawley, rat, in vivo, 300 mg/kg/day
[7] = female, Sprague Dawley, rat, in vivo, 1000 mg/kg/day
[8] = male, Sprague Dawley, rat, in vivo, 100 mg/kg/day
[9] = male, Sprague Dawley, rat, in vivo, 300 mg/kg/day
[10] = male, Sprague Dawley, rat, in vivo, 1000 mg/kg/day

Q: Which results are given for `NS(=O)(=O)c1ccc(Nc2ncc3cc4n(c3n2)C2(CCCCC2)C(=O)NN4)cc1` [Compound I]?
A: tolerability ([1]; PO, up to 28 days, up to 1000 mg/kg/day): generally well tolerated; also recorded: well tolerated in rats without adverse effects of any sort; mean body weight and body weight gain ([1]; any dose level): did not affect; MTD at 28 days ([1]; both sexes, Sprague Dawley, rat, in vivo, oral, highest dose level tested, read-out: 28-day maximum tolerated dose (MTD) (also NOAEL)): 1000 mg/kg/day; AUC0-24 [1, 5]: 7570 ng·h/mL; AUC(0-t) ([1]; female, Sprague Dawley, rat, in vivo, 100 mg/kg/day, AUC0-24): 9580 ng·h/mL; Cmax ([1]; female, Sprague Dawley, rat, in vivo, 100 mg/kg/day, Cmax): 3330 ng/mL; Tmax [1, 5]: 0.25 h; half-life [1, 5]: 3.93 h; AUC0-24 [1, 6]: 11600 ng·h/mL; AUC(0-t) ([1]; female, Sprague Dawley, rat, in vivo, 300 mg/kg/day, AUC0-24): 11400 ng·h/mL; Cmax ([1]; female, Sprague Dawley, rat, in vivo, 300 mg/kg/day, Cmax): 3070 ng/mL; Tmax [1, 6]: 0.5 h; half-life [1, 6]: 3.98 h; AUC0-24 [1, 7]: 12700 ng·h/mL; AUC(0-t) ([1]; female, Sprague Dawley, rat, in vivo, 1000 mg/kg/day, AUC0-24): 12600 ng·h/mL; Tmax [1, 7]: 0.5 h; AUC(0-t) ([1]; female, Sprague Dawley, rat, in vivo, 1000 mg/kg/day, plasma AUC0-24): 12700 ng·h/mL; Cmax ([1]; female, Sprague Dawley, rat, in vivo, 1000 mg/kg/day, plasma Cmax): 1390 ng/mL; half-life [1, 7]: 5.89 h; AUC0-24 [1, 8]: 8310 ng·h/mL; AUC(0-t) ([1]; male, Sprague Dawley, rat, in vivo, 100 mg/kg/day, AUC0-24): 11000 ng·h/mL; Cmax ([1]; male, Sprague Dawley, rat, in vivo, 100 mg/kg/day, Cmax): 1010 ng/mL; half-life [1, 8]: 3.27 h; AUC0-24 [1, 9]: 9750 ng·h/mL; AUC(0-t) ([1]; male, Sprague Dawley, rat, in vivo, 300 mg/kg/day, AUC0-24): 10700 ng·h/mL; Tmax [1, 9]: 0.5 h; half-life [1, 9]: 5.54 h; AUC0-24 [1, 10]: 8130 ng·h/mL; AUC(0-t) ([1]; male, Sprague Dawley, rat, in vivo, 1000 mg/kg/day, AUC0-24): 11300 ng·h/mL; AUC(0-t) ([1]; male, Sprague Dawley, rat, in vivo, 1000 mg/kg/day, plasma AUC0-24): 8130 ng·h/mL; Cmax ([1]; male, Sprague Dawley, rat, in vivo, 1000 mg/kg/day, plasma Cmax): 647 ng/mL; half-life [1, 10]: 9.35 h; accumulation after 28 days of once-daily dosing ([1]; rat, in vivo): no accumulation; growth with both Compound I and a CDK4/6i ([2]; 300 nM each, 8 weeks): no noticeable growth after 8 weeks; time to CDK4/6i resistance ([2]; 300 nM with palbociclib or abemaciclib, up to 8 weeks): prolonged the time to CDK4/6i resistance; cellular proliferation IC50, combined with camptothecin, versus single agents (H526 cells; 100 nM Compound I with camptothecin dose curve, 6 days): comparable; IC50 (H526 cells; Homo sapiens, NCI-H526, 144 h, six days): 62 nM; inhibition compared with palbociclib (H526 cells; six days): low nanomolar concentrations; cell viability compared with palbociclib (Kuramochi cells): potently decreases cell viability; also recorded: at concentrations substantially lower than palbociclib; cell cycle sensitivity [3]: not sensitive to Compound I; cell cycle arrest [4]: arrested during the G1 phase at 30, 100, 300 nM
